The results in this text go back to a melting point compilation (Tetko et al.; mined from patent text by program, amines drawn as free bases though some values may be those of a salt).

A value given as a limit tells only on which side of the number the result lay.

`CC1(c2ccc(O)cc2)CC1(Cl)Cl` (stereo not drawn): the melting point – broadly, the temperature of the solid-liquid transition – lay in the range of 125 to 126 °C.
The figure for `O=C(O)c1cc(O)c(C(=O)c2ccc(Cl)cc2)c([N+](=O)[O-])c1` is 266 to 268 °C; for `Cc1nc2sc3ccccc3n2c1C(C)O` (stereo not drawn) it is 173 to 174 °C; for `O=C(NCCO)c1cccc(-c2cccc3nn(Cc4ccccc4)cc23)c1` it is 166 to 167 °C.
As for `Cc1nc2c(c3ccccc3n3nnnc23)n1CC(C)(C)O`, the melting point was in the range of 202 to 205 °C.
The compound `CC1CN(C(=O)N(c2ccccc2)c2ccccc2)CCN1C(=O)N(c1ccccc1)c1ccccc1` (stereo not drawn) had a melting point of 200 to 202 °C.
For `O=C(Nc1cc(Cl)cc(Cl)c1)c1cnc(Nc2ccccc2)nc1C(F)(F)F`, the melting point lay within 228 to 229 °C.
Compound `COC(=O)C(c1ccccc1)N1C(=O)C(N=[N+]=[N-])C1Sc1nnc(C)s1` (stereo not drawn) came in with a melting point of 81 to 84 °C.
Compound `CC(=O)NCc1ccc(Oc2ccccc2C(=O)CN2CCN(c3ccncc3)CC2)cc1` registered a melting point of 150 to 151 °C.
On to `CCN1C=C(C(=O)O)C(=O)CC1c1cccnc1` (stereo not drawn), for which the melting point lay in the range of 197 to 199 °C.
Regarding `O=c1[nH]c(C(F)(F)F)nc2ccc(I)cc12`, the melting point is > 255 °C.
The compound `COc1cccc2c1OC(C(=O)Nc1ccncc1)C2CC(=O)O` (stereo not drawn) gave a melting point of 227 to 233 °C.
To `CCCCCCCCCCCCCCCC1CCCC(c2ccc(N)cc2)(c2ccc(N)cc2)C1` (stereo not drawn) belongs 107 °C; to `CN(C)CCCNC(=O)Cn1cnc(-c2ccccc2)c1-c1ccccc1`, 92 to 94 °C.
Regarding `O=S(=O)(c1ccccc1)N1CCNc2ncc(I)cc21`, the melting point is 145 to 146 °C.
The compound `CCCCCCCCc1ccc(-c2ccc(O)c(F)c2)nc1` had a melting point of 73.5 to 74.6 °C.
To `Cc1c(NC(=O)CC(C)(C)C)cc2c(c1C)OC(C)(C)C2(O)Cc1ccc(C(C)C)cc1` (stereo not drawn) belongs 177 to 178 °C; to `Cn1c2ccccc2c2cc(C(=O)N3CCOCC3)sc21`, 125 to 127 °C; to `Cc1ccccc1COc1cccnc1NC(=N)Nc1ccccc1`, 157 to 158 °C.
Consider `C#CC(O)(C(Oc1ccc(F)cc1)n1cncn1)C(C)(C)C` (stereo not drawn), for which the melting point lay in the range of 134 to 135 °C.
`CN1c2c(occ(CO)c2=O)-c2ccccc2S1(=O)=O` displayed a melting point of 201 to 205 °C.
For the compound `COc1ccc(CCNC(=O)C(F)(F)F)cc1S(=O)(=O)N=CN(C)C`, the melting point was in the range of 143 to 144 °C.
The compound `C=CC(=O)Nc1ccc(C(=O)C[N+](=O)[O-])c(Cl)c1` yielded a melting point of 140 to 144 °C.
To `CC(C)c1cc(C(C)C)c(CC(=O)NS(=O)(=O)Oc2c(C(C)C)cc(C=O)cc2C(C)C)c(C(C)C)c1` belongs 71 to 76 °C.
Regarding `O=[N+]([O-])c1ccc(Oc2ccc(C3(c4ccc(Oc5ccc([N+](=O)[O-])c(O)c5)cc4)C4CC5CC(C4)CC3C5)cc2)cc1O`, the melting point fell in the range of 248 to 250 °C.
Compound `N#Cc1cccc(CN2CCc3sc(Nc4ncc(F)cn4)nc3-c3cn[nH]c32)c1` registered a melting point of 282 to 284 °C.
To `CN1Cc2cc(Br)cnc2N(C)C1=O` belongs 119 to 120 °C.
The figure for `CC(=O)N1[C@@H](c2ccc(Cl)cc2)SC(C)(C)[C@@H]1C(=O)O` is 197 to 198 °C; for `CN(CCF)C(=O)c1cc2ccccc2c(-c2ccccc2I)n1` it is 142 to 143 °C.
For `CC(C)(C)CC(=O)c1ccc2c(c1)C=C(C(=O)O)C(C(F)(F)F)O2` (stereo not drawn), the melting point fell in the range of 198 to 200 °C.
`CC(=O)N(CCP(=O)(O)O)Cc1cc([N+](=O)[O-])cc2[nH]c(=O)c(=O)[nH]c12` showed a melting point of 248 °C.
With `Cc1ccc(C(=O)O)cc1OCc1ccccc1`, the melting point was 159 to 161 °C.
`CCOC(=O)c1ccc(-c2ccc(OC)c(-c3cccc([N+](=O)[O-])c3)c2)cc1` yielded a melting point of 106 to 108 °C.
For the compound `Cc1cnc2c(c1C)CCCC2C(N)=S` (stereo not drawn), the melting point was 163 to 165 °C.
The figure for `Fc1c(F)c(F)c(CSc2ncccn2)c(F)c1F` is 89 to 92 °C; for `CCCCC(=O)N(c1ccn(C)n1)C1CCCCC1` it is 97.5 to 98 °C; for `Cc1cnc(CCCCNc2ncc(Cc3ccc(CO)nc3)c(=O)[nH]2)c(Br)c1` it is 150 to 152 °C.
For the compound `CC(=O)N1CCC(CCCCC(=O)O)CC1`, the melting point is 198 to 203 °C.
As to `c1ccc(-c2nc(-c3ccc(OCCCn4ccnc4)cc3)no2)cc1`, the melting point fell in the range of 132 to 133 °C.
Compound `COc1ccc(Sc2ccccc2CC(=O)O)cc1` had a melting point of 102 to 105 °C.
To `CCOC(=O)C1=C(C)NC(C)=C(C(=O)OC)C1c1ccccc1C#N` (stereo not drawn) belongs 178 °C.
In turn, `CCCCCCCNC(=O)Nc1ccccc1C(=O)N1CCN(c2ccccc2OC)CC1` displayed a melting point of 209 to 212 °C.
In turn, `CN1Cc2c(C(=O)OC(C)(C)C)ncn2-c2cccc(Cl)c2C1=O` registered a melting point of 188 to 190 °C.
As for `COC(=O)c1ccc(C(=O)NS(=O)(=O)c2ccc(CCNC(=O)COc3ccccc3)cc2)cn1`, the melting point lay in the range of 201 to 203 °C.
`Cc1[nH]c2cc3c(cc2c1-c1ccccc1)C(C)(C)C=N3` showed a melting point of 233 to 235 °C.
`Cc1ccc(F)c2c1N(CC1CCCO1)C(=O)C21COc2cc3c(cc21)CCO3` (stereo not drawn) returned a melting point of 175 to 176 °C.
Turning to `CS(=O)(=O)c1cc(C(=O)N=C(N)N)ccc1C1C=CCC1` (stereo not drawn), the melting point fell in the range of 188 to 190 °C.
Compound `N=C(N)Nc1nc(C(=O)NCC(=O)NC(CC(=O)O)c2cccnc2)cs1` (racemic) yielded a melting point of 186 °C.
Consider `C#Cc1ccc2c(c1)C(c1ccccn1)=NCc1c(-c3nc(C(C)C)no3)ncn1-2`, for which the melting point was > 200 °C.
Consider `COc1cc2ccccc2cc1O`, for which the melting point was 108 to 109 °C.
Compound `COc1cccc(-c2cc3c(Nc4cccc(Cl)c4)ncnc3[nH]2)c1` returned a melting point of 262 to 263 °C.
Consider `Cc1c(NC(=O)CCCCc2ccc(F)cc2)ccc2cc(CN3CCCC3)cnc12`, for which the melting point is 137 to 138 °C.
Consider `O=C(O)c1cc2ccc3c(c2c(-c2ccc4c(c2)OCO4)c1COCc1ccccc1)OCO3`, for which the melting point was in the range of 219 to 221 °C.
`CCOC(=O)c1cncc(OC)c1CCCO` returned a melting point of 85 to 89 °C.
For the compound `O=C1CN2CCCC1C2` (stereo not drawn), the melting point fell in the range of 83 to 87 °C.
The figure for `Brc1ccc(C2CC(n3ccnc3)c3ccccc3N2)cc1` (stereo not drawn) is 142 to 144 °C.
To `COc1ccc(N2CCN(C3CN(C4c5c(C)cc(C)c(C)c5OC4(C)C)CCN3c3ccccc3)CC2)cc1` (stereo not drawn) belongs 144 to 145 °C; to `O=C(O)COCOc1cc(Cl)cc(Cl)c1`, 79 to 82 °C; to `CCCCn1c(C)nc(N2CCc3ccccc3CC2)c([N+](=O)[O-])c1=O`, 158 to 161 °C.
`COc1ccc(C=CC(=O)N2CCN(C(=O)C=Cc3ccc(OC)c(C(F)F)c3)CC2)cc1C(F)F`: the melting point fell in the range of 259 to 261 °C.
`O=C(CSCCCCOc1ccccc1)NNC(=O)c1ccc(O)cc1` registered a melting point of 113 to 115 °C.
The figure for `Fc1cc(CC2(Cc3ccnc(F)c3)c3ccccc3-c3ncncc32)ccn1` is 171 to 174 °C; for `CC(C)(C)OC(=O)N1CCN(C(c2ccccc2)c2ccc(Cl)cc2)CC1` (single isomer, unassigned; (-)) it is 156 °C.
